Source: ChEMBL document CHEMBL4507322, “Data for DCP probe (R)-ZINC-3573” (2021)

What was measured:
[1] = target: T1, 5-hydroxytryptamine receptor 1B (Homo sapiens, UniProt P28222); experiment: GPCRScan assay: inhibition of 5-HT1B; set-up: radioligand conc. used [nm] 0.6 – 1.5, parental cells stable HEK
[2] = target: T2, GABA-A receptor; anion channel (Rattus norvegicus) (UniProt O09028+P15431+P18506+P18508+P19969+P20236+P23574+P23576+P28471+P28473+P30191+P62813+P63079+P63138+Q91ZM7+Q9ES14); settings: Compound concentration 10.0 uM
[3] = target: T1, 5-hydroxytryptamine receptor 1B; settings: Compound concentration 10.0 uM
[4] = target: Kappa-type opioid receptor (Homo sapiens) (UniProt P41145); settings: Compound concentration 10.0 uM
[5] = target: Beta-1 adrenergic receptor (Homo sapiens) (UniProt P08588); settings: Compound concentration 10.0 uM
Beta-1 adrenergic receptor (Homo sapiens), sequence (P08588 whole entry, looked up): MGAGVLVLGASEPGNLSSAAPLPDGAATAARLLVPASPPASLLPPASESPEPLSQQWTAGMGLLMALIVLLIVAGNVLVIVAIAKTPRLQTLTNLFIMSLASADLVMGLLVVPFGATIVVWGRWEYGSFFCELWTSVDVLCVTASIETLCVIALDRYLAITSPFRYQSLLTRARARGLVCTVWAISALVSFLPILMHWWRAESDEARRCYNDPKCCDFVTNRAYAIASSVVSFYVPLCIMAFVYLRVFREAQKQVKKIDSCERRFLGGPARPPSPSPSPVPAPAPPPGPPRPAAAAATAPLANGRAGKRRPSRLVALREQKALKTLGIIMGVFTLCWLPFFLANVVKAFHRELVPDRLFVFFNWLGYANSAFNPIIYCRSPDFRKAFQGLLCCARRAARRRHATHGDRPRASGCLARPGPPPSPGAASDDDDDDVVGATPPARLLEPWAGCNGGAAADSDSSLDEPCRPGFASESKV

[6] = target: 5-hydroxytryptamine receptor 1E (Homo sapiens) (UniProt P28566); settings: Compound concentration 10.0 uM
[7] = target: Beta-2 adrenergic receptor (Homo sapiens) (UniProt P07550); settings: Compound concentration 10.0 uM
[8] = target: Alpha-2B adrenergic receptor (Homo sapiens) (UniProt P18089); settings: Compound concentration 10.0 uM
[9] = target: 5-hydroxytryptamine receptor 1A (Homo sapiens) (UniProt P08908); settings: Compound concentration 10.0 uM
D(2) dopamine receptor [10] = target: T3, D(2) dopamine receptor (Homo sapiens, UniProt P14416); experiment: GPCRScan assay: inhibition of D2; set-up: radioligand conc. used [nm] 0.4 – 1.0, parental cells stable fibroblast
T3 sequence (P14416 whole entry): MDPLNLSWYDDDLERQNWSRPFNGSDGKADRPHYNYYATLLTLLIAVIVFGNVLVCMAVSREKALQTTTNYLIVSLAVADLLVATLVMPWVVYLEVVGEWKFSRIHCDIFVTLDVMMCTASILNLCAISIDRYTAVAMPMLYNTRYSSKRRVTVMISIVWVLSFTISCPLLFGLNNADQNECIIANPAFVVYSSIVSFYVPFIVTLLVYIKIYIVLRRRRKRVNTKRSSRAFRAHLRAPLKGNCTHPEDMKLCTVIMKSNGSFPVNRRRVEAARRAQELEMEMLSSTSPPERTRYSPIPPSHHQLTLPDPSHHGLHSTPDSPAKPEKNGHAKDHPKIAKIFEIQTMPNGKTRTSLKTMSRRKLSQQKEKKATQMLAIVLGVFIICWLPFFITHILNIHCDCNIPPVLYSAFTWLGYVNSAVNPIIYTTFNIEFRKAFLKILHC

[11] = target: Histamine H2 receptor (Homo sapiens) (UniProt P25021); settings: Compound concentration 10.0 uM
[12] = target: Muscarinic acetylcholine receptor M3 (Homo sapiens) (UniProt P20309); settings: Compound concentration 10.0 uM
[13] = target: 5-hydroxytryptamine receptor 2B (Homo sapiens) (UniProt P41595); settings: Compound concentration 10.0 uM
[14] = target: D(3) dopamine receptor (Homo sapiens) (UniProt P35462); settings: Compound concentration 10.0 uM
[15] = target: T4, 5-hydroxytryptamine receptor 6 (Homo sapiens, UniProt P50406); settings: Compound concentration 10.0 uM
T4 sequence (P50406 whole entry): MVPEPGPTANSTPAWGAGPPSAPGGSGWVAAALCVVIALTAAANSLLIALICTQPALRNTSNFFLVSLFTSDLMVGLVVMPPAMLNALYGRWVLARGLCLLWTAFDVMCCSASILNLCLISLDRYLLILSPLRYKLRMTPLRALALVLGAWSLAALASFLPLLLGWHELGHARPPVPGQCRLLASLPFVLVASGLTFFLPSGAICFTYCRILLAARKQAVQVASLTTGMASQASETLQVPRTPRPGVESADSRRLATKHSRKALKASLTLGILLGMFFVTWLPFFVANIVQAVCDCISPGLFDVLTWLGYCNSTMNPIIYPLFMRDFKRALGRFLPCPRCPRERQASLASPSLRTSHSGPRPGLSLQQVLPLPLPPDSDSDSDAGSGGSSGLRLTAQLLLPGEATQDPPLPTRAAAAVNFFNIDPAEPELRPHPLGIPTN

[16] = target: T5, Sigma intracellular receptor 2 (Homo sapiens, UniProt Q5BJF2); settings: Compound concentration 10.0 uM
T5 sequence (Q5BJF2 whole entry): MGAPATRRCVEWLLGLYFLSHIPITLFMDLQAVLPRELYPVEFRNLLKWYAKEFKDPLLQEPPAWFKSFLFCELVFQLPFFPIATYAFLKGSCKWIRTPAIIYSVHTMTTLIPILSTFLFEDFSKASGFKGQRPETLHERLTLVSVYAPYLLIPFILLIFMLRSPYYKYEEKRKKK

[17] = target: Mu-type opioid receptor (Homo sapiens) (UniProt P35372); settings: Compound concentration 10.0 uM
[18] = target: 5-hydroxytryptamine receptor 1A (Homo sapiens, UniProt P08908); experiment: GPCRScan assay: inhibition of 5-HT1A; set-up: radioligand conc. used [nm] 0.5 – 1.0, parental cells stable CHO
[19] = target: Alpha-2A adrenergic receptor (Homo sapiens) (UniProt P08913); settings: Compound concentration 10.0 uM
[20] = target: Muscarinic acetylcholine receptor M2 (Homo sapiens) (UniProt P08172); settings: Compound concentration 10.0 uM
[21] = target: T2, GABA-A receptor; anion channel (Rattus norvegicus); settings: Compound concentration 10.0 uM; remark: listed apart in the source
[22] = target: T6, Sodium-dependent dopamine transporter (Homo sapiens, UniProt Q01959); experiment: GPCRScan assay: inhibition of DAT; set-up: radioligand conc. used [nm] 3.6 – 16.0, parental cells stable HEK
T6 sequence (Q01959 whole entry): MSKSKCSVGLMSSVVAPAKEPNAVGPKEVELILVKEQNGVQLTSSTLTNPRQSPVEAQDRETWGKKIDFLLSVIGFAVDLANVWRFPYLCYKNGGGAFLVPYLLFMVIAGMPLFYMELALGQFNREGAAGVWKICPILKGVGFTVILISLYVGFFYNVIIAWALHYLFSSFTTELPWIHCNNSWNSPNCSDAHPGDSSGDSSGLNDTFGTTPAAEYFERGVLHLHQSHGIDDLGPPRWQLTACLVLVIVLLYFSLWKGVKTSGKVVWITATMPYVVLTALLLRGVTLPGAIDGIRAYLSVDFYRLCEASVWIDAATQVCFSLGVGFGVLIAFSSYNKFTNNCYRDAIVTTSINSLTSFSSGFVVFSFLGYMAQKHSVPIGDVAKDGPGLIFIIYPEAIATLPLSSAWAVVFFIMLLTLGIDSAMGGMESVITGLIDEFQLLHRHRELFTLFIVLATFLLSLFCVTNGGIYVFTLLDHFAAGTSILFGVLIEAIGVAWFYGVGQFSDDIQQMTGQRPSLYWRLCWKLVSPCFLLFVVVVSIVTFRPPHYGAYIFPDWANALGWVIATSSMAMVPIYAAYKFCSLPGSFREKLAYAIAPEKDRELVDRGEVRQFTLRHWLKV

Rattus norvegicus = species: Rattus norvegicus; settings: Compound concentration 10.0 uM
[23] = target: Muscarinic acetylcholine receptor M1 (Homo sapiens) (UniProt P11229); settings: Compound concentration 10.0 uM
[24] = target: D(1B) dopamine receptor (Homo sapiens) (UniProt P21918); settings: Compound concentration 10.0 uM
[25] = target: Sodium-dependent noradrenaline transporter (Homo sapiens) (UniProt P23975); settings: Compound concentration 10.0 uM
[26] = target: Alpha-2C adrenergic receptor (Homo sapiens) (UniProt P18825); settings: Compound concentration 10.0 uM
[27] = target: Histamine H1 receptor (Homo sapiens) (UniProt P35367); settings: Compound concentration 10.0 uM
[28] = target: Histamine H3 receptor (Homo sapiens) (UniProt Q9Y5N1); settings: Compound concentration 10.0 uM
[29] = target: 5-hydroxytryptamine receptor 3A (Homo sapiens) (UniProt P46098); settings: Compound concentration 10.0 uM
[30] = target: T7, 5-hydroxytryptamine receptor 3A (Homo sapiens, UniProt P46098); experiment: GPCRScan assay: inhibition of 5-HT3; set-up: radioligand conc. used [nm] 1.0 – 2.0, parental cells HEKT
T7 sequence (P46098 whole entry): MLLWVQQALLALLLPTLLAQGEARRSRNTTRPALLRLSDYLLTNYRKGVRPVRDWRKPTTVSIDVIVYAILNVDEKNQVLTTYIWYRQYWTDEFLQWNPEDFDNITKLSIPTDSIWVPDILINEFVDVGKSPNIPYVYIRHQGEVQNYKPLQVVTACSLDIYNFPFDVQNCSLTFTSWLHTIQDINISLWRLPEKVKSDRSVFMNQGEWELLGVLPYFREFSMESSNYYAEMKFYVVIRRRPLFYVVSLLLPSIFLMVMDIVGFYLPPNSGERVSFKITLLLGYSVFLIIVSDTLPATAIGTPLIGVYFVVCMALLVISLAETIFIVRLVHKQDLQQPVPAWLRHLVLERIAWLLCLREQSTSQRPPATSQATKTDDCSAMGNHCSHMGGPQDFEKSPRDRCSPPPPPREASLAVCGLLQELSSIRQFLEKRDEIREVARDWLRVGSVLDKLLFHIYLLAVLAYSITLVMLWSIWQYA

[31] = target: Sigma non-opioid intracellular receptor 1 (Homo sapiens) (UniProt Q99720); settings: Compound concentration 10.0 uM
[32] = target: 5-hydroxytryptamine receptor 2A (Homo sapiens) (UniProt P28223); settings: Compound concentration 10.0 uM
[33] = target: 5-hydroxytryptamine receptor 5A (Homo sapiens) (UniProt P47898); settings: Compound concentration 10.0 uM
[34] = target: D(1A) dopamine receptor (Homo sapiens) (UniProt P21728); settings: Compound concentration 10.0 uM
[35] = target: D(4) dopamine receptor (Homo sapiens) (UniProt P21917); settings: Compound concentration 10.0 uM
[36] = target: Sodium-dependent serotonin transporter (Homo sapiens) (UniProt P31645); settings: Compound concentration 10.0 uM
Sodium-dependent serotonin transporter (Homo sapiens), sequence (P31645 whole entry, looked up): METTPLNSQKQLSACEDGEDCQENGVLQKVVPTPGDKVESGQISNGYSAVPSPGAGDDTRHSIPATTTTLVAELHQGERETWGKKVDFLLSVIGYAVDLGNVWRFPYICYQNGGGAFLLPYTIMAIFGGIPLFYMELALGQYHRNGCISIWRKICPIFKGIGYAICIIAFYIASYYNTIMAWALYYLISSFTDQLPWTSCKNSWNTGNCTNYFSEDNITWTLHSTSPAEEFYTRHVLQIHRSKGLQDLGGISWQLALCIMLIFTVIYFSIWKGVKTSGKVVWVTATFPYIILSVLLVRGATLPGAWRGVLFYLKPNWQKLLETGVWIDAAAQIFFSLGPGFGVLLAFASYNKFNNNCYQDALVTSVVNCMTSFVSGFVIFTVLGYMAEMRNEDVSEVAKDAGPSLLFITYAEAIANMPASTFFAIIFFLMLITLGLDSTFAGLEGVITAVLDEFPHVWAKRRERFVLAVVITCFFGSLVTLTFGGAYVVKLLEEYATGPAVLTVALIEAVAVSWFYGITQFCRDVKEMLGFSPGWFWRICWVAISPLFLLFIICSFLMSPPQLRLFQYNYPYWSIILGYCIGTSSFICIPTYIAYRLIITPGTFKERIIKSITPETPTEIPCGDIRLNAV

[37] = target: Alpha-1D adrenergic receptor (Homo sapiens) (UniProt P25100); settings: Compound concentration 10.0 uM
[38] = target: Alpha-1A adrenergic receptor (Homo sapiens) (UniProt P35348); settings: Compound concentration 10.0 uM
[39] = target: Beta-3 adrenergic receptor (Homo sapiens) (UniProt P13945); settings: Compound concentration 10.0 uM
Beta-3 adrenergic receptor (Homo sapiens), sequence (P13945 whole entry, looked up): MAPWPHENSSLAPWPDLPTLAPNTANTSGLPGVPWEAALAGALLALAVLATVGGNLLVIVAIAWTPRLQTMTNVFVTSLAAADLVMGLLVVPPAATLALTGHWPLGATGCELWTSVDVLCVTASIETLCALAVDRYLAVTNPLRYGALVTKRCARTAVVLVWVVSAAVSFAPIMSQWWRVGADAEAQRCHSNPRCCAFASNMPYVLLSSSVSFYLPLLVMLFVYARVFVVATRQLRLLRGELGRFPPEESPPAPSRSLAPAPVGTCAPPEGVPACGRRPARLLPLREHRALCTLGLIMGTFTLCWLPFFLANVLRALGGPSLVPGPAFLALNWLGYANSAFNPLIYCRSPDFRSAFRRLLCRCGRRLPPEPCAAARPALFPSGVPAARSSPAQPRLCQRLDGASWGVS

[40] = target: T4, 5-hydroxytryptamine receptor 6; experiment: GPCRScan assay: inhibition of 5-HT6; set-up: radioligand conc. used [nm] 2.0 – 4.0, parental cells stable HEK
[41] = target: Alpha-1B adrenergic receptor (Homo sapiens) (UniProt P35368); settings: Compound concentration 10.0 uM
[42] = target: GABA-A receptor; anion channel; experiment: GPCRScan assay: inhibition of GABAA/BZP; assay type: protein-complex assay, Rattus norvegicus; set-up: radioligand conc. used [nm] 0.6 – 4.0, parental cells brain tissue
[43] = target: T8, 5-hydroxytryptamine receptor 1D (Homo sapiens, UniProt P28221); settings: Compound concentration 10.0 uM
T8 sequence (P28221 whole entry): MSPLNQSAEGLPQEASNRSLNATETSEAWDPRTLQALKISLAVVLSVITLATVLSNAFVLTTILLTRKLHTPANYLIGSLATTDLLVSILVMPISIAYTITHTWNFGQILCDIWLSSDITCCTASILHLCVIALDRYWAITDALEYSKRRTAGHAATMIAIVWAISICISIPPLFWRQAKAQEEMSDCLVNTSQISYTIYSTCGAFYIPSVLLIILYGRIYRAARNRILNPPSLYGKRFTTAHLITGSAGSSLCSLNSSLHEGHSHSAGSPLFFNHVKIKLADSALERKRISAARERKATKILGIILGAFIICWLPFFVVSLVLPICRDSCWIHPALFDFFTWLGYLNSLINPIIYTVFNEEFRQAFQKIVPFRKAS

[44] = target: Delta-type opioid receptor (Homo sapiens) (UniProt P41143); settings: Compound concentration 10.0 uM
[45] = target: 5-hydroxytryptamine receptor 7 (Homo sapiens) (UniProt P34969); settings: Compound concentration 10.0 uM
[46] = target: Histamine H4 receptor (Homo sapiens) (UniProt Q9H3N8); settings: Compound concentration 10.0 uM
[47] = target: 5-hydroxytryptamine receptor 2C (Homo sapiens) (UniProt P28335); settings: Compound concentration 10.0 uM
D(2) dopamine receptor [48] = target: T3, D(2) dopamine receptor; settings: Compound concentration 10.0 uM
[49] = target: T8, 5-hydroxytryptamine receptor 1D; experiment: GPCRScan assay: inhibition of 5-HT1D; set-up: radioligand conc. used [nm] 1.0 – 2.0, parental cells HEKT
[50] = target: T5, Sigma intracellular receptor 2; experiment: GPCRScan assay: inhibition of Sigma 2; set-up: radioligand conc. used [nm] 5.0, parental cells HEKT
[51] = target: T6, Sodium-dependent dopamine transporter; settings: Compound concentration 10.0 uM
[52] = target: Muscarinic acetylcholine receptor M5 (Homo sapiens) (UniProt P08912); settings: Compound concentration 10.0 uM
Muscarinic acetylcholine receptor M5 (Homo sapiens), sequence (P08912 whole entry): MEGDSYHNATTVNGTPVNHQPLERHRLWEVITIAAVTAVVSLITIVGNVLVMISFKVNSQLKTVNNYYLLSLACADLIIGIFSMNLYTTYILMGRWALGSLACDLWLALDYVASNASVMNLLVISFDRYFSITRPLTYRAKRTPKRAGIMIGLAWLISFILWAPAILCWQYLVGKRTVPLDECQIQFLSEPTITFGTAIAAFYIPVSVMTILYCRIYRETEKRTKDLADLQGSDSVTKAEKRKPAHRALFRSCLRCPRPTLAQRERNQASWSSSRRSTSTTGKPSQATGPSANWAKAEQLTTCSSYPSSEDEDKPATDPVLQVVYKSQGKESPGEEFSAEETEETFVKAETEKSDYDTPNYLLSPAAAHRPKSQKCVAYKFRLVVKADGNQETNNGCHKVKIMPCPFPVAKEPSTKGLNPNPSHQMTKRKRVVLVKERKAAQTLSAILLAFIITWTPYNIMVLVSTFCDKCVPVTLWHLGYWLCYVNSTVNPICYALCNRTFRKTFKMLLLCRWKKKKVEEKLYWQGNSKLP

[53] = target: Muscarinic acetylcholine receptor M4 (Homo sapiens) (UniProt P08173); settings: Compound concentration 10.0 uM
[54] = target: T9, Mas-related G-protein coupled receptor member X2 (Homo sapiens, UniProt Q96LB1); experiment: FLIPR assay
T9 sequence (Q96LB1 whole entry): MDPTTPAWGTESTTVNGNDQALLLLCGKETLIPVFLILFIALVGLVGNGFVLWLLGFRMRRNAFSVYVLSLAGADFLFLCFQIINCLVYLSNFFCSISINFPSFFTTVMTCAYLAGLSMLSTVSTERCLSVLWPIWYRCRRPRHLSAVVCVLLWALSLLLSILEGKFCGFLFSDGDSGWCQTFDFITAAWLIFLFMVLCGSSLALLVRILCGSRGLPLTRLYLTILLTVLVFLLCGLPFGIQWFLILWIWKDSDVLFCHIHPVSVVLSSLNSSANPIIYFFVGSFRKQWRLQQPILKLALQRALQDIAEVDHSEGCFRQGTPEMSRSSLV

[55] = target: T9, Mas-related G-protein coupled receptor member X2; experiment: PRESTO-Tango concentration response assay
[56] = target: Alpha-1B adrenergic receptor (Homo sapiens, UniProt P35368); experiment: GPCRScan assay: inhibition of Alpha1B; set-up: radioligand conc. used [nm] 0.3 – 1.0, parental cells stable HEK

T1 sequence (P28222 whole entry): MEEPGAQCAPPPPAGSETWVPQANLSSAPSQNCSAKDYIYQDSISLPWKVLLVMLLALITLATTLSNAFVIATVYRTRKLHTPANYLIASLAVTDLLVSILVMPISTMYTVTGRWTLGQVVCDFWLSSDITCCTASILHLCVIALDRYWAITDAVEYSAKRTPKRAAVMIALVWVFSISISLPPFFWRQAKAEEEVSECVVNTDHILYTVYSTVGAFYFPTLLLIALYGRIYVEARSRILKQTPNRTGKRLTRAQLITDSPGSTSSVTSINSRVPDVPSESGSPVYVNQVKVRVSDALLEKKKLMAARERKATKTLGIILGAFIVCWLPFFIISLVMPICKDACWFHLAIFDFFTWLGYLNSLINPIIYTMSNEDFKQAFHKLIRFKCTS

CN(C)[C@@H]1CCN(c2cc(-c3ccccc3)nc3ccnn23)C1 [(R)-ZINC-3573]
489 nM: Ki ([50]; read-out: Ki)
1100 nM: Ki ([22]; read-out: pKi (converted))
1700 nM: Ki ([49]; read-out: pKi (converted))
inactive: inhibition [2] 37.3% | inhibition [4] 13.6% | inhibition [5] 30.7% | inhibition [6] 7.26% | inhibition [7] 14.4% | inhibition [8] 11.3% | inhibition [11] 31.9% | inhibition [12] 11.7% | inhibition [13] 16.7% | inhibition [14] 28.1% | inhibition [17] 21.3% | inhibition [19] 32.9% | inhibition [20] 20.1% | inhibition (Rattus norvegicus) 11.6% | inhibition [23] 5.27% | inhibition [24] 6.36% | inhibition [25] 45.4% | inhibition [26] 40.5% | inhibition [27] 39.3% | inhibition [28] 38.6% | inhibition [31] 28.6% | inhibition [32] 16.3% | inhibition [33] 13.8% | inhibition [34] 38.9% | inhibition [35] 32.6% | inhibition [36] 4.09% | inhibition [37] 20.4% | inhibition [38] 21.8% | inhibition [39] 12.7% | inhibition [41] 10.2% | inhibition [44] 34.3% | inhibition [45] 12.3% | inhibition [46] 7.75% | inhibition [47] 2.22% | inhibition [52] -3.76% | inhibition [53] 28.8%
3240 nM: Ki [1]
1740 nM: Ki ([49]; read-out: Ki)
748 nM: Ki ([40]; read-out: Ki)
1940 nM: Ki [42]
5.73: pKi [42]
479 nM: Ki ([50]; read-out: pKi (converted))
369 nM: Ki (D(2) dopamine receptor [10]; read-out: Ki)
355 nM: Ki (D(2) dopamine receptor [10]; read-out: pKi (converted))
2960 nM: Ki ([30]; read-out: Ki)
2880 nM: Ki ([30]; read-out: pKi (converted))
active: inhibition [3] 52.5% | inhibition [9] 64.8% | inhibition [15] 58.9% | inhibition [16] 82.4% | inhibition [21] 54.9% | inhibition [29] 76.6% | inhibition [43] 58.4% | inhibition (D(2) dopamine receptor [48]) 69.8% | inhibition [51] 74.3%
1110 nM: Ki ([22]; read-out: Ki)
1620 nM: Ki [18]

CN(C)[C@H]1CCN(c2cc(-c3ccccc3)nc3ccnn23)C1 [(S)-ZINC-3573]
2880 nM: Ki ([49]; read-out: pKi (converted))
973 nM: Ki ([50]; read-out: Ki)
1080 nM: Ki ([40]; read-out: pKi (converted))
> 100000 nM (not active): EC50 [54] | EC50 [55]
2290 nM: Ki ([56]; read-out: Ki)
3550 nM: Ki ([30]; read-out: pKi (converted))
1090 nM: Ki ([40]; read-out: Ki)
2110 nM: Ki ([56]; read-out: pKi (converted))
2960 nM: Ki ([49]; read-out: Ki)
3630 nM: Ki ([30]; read-out: Ki)
active: inhibition [15] 69.1% | inhibition [16] 65.1% | inhibition [29] 64.5% | inhibition [41] 59.1% | inhibition [43] 63.2%
inactive: inhibition [3] 4.88% | inhibition [4] 6.22% | inhibition [5] 4.16% | inhibition [7] 27.4% | inhibition [8] 9.93% | inhibition [9] 19.3% | inhibition [11] 30% | inhibition [12] 29.4% | inhibition [13] 33.3% | inhibition [14] 39% | inhibition [17] 9.07% | inhibition [19] 40.2% | inhibition [20] 26.6% | inhibition [21] 21.5% | inhibition (Rattus norvegicus) 2.83% | inhibition [23] 42.8% | inhibition [24] 3.36% | inhibition [25] 2.02% | inhibition [26] 16.4% | inhibition [27] 16.4% | inhibition [28] 13.4% | inhibition [31] 22% | inhibition [32] 23.5% | inhibition [33] 5.42% | inhibition [35] 8.3% | inhibition [36] 2.83% | inhibition [37] 33.5% | inhibition [38] 34.2% | inhibition [39] 18.9% | inhibition [44] 2.89% | inhibition [45] 7.57% | inhibition [46] 12.4% | inhibition [47] -3.16% | inhibition (D(2) dopamine receptor [48]) 2.85% | inhibition [51] -1.89% | inhibition [52] 40.4% | inhibition [53] 34.4%
